Results: patent US5677459A, “Methods for the preparation of modulators of acetylcholine receptors” (Sibia Neurosciences, Inc., priority 1995, dated 1997)
Like-named read-outs stand apart in the source and are kept apart here.

How the values were obtained:
[1] = test system: ^3 H-Norepinephrine release, rat prefrontal cortex slices; experiment: Ligand-stimulated ^3 H-norepinephrine release from rat prefrontal cortex slices; format: cell-based; details: in vitro slices, 300 μM
Procedure: (§1) Measurement of ^3 H-dopamine release from rat striatal slices was performed according to the method of Sacaan et al. (J. Neurochem. 59:245 (1992)). Male Sprague-Dawley rats (250-300 g) were decapitated and the striata or olfactory tubercles dissected quickly on a cold glass surface. The tissue was chopped to a thickness of 300 μm with a McIlwain tissue chopper. After chopping again at right angles the tissue was dispersed and incubated for 10 min. at 37° C. in oxygenated Kreb's buffer. ^3 H-Dopamine (40 Ci/mmol, NEN- Dupont, Boston, Mass.) was added (50 nM) and the tissue was incubated for 30 min. in Kreb's buffer containing 10 μM pargyline and 0.5 mM ascorbic acid. Aliquots of the minced tissue were then transferred to chambers of a Brandel Superfusion system in which the tissue was supported on Whatman GF/B filter discs. The tissue was then superfused with buffer at a constant flow rate of 0.3 ml/min by means of a Brandel peristaltic pump. The perfusate was collected in plastic scintillation vials in 3-min fractions, and the radioactivity was estimated by scintillation spectrophotometry. The superfusate for the first 120 min was discarded. After two baseline fractions had been collected, the superfusion buffer was switched to fresh buffer with or without compound of interest. At the end of the experiment the filter and the tissue were removed, and the radiolabeled neurotransmitter content was estimated after extraction into scintillation fluid. The fractional efflux of radiolabeled neurotransmitter was estimated as the amount of radioactivity in the perfusate fraction relative to the total amount in the tissue.
(§2) Following essentially the same procedure as set forth above, the amount of ^3 H-norepinephrine released from rat hippocampus, thalamus and prefrontal cortex slices superfused with buffer containing (or lacking) compounds of interest was also measured.
(§3) Results of studies of the effects of an invention compound (as compared to the effect of nicotine) on the release of neurotransmitters from rat brain slices are presented in Table II. Results presented in Part A of the Table are expressed as the percent fractional release and results presented in Part B of the Table are expressed as a percentage, relative to nicotine response.

[2] = test system: ^3 H-Norepinephrine release, rat thalamus slices; experiment: Ligand-stimulated ^3 H-norepinephrine release from rat thalamus slices; format: cell-based; details: in vitro slices, 300 μM
Procedure: as §1, §2, §3

[3] = target: T1, nicotinic acetylcholine receptor (Rattus norvegicus, UniProt P09483+P12390); experiment: ^3 H-Nicotine binding/displacement, rat cerebral membranes
T1 construct: the brains removed and the cerebral cortex dissected on ice; from tissue; host or cells: cerebral cortex synaptic membranes of male Sprague-Dawley rats
T1 sequence (P09483 31-630): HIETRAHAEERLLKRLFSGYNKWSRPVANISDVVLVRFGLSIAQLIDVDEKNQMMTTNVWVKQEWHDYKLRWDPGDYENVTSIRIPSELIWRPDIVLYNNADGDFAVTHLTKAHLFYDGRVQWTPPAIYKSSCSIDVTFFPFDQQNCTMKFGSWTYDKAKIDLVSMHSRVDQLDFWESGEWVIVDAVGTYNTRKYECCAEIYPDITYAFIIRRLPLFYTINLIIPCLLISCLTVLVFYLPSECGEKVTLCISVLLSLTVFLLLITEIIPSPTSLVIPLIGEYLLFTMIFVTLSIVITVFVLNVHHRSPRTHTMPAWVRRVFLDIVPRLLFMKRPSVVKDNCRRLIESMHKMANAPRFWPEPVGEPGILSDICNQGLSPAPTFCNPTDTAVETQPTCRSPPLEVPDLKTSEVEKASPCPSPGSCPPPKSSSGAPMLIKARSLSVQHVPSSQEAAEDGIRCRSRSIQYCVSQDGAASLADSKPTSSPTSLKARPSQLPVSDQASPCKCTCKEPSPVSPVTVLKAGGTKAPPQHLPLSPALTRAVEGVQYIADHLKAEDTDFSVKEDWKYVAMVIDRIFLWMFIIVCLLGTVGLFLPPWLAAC
T1 sequence (P12390 25-500): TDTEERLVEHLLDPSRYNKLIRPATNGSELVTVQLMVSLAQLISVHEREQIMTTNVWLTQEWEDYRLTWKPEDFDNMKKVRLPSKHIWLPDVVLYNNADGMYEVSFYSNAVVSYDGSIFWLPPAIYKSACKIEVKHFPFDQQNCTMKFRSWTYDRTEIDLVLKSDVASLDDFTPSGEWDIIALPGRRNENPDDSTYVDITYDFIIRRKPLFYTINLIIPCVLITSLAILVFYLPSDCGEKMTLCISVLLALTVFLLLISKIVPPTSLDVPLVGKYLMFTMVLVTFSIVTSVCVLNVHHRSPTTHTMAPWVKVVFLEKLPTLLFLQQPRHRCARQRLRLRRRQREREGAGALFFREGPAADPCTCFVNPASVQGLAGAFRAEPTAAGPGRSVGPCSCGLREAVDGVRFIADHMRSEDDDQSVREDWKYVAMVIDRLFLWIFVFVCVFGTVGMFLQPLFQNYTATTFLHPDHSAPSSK
Procedure: ^3 H-Nicotine binding to rat cerebral membranes was performed according to modifications of the method of Flyn and Mash (J. Neurochem. 47:1948 (1986)). ^3 H-Nicotine (80 ci/mmol; New England Nuclear Corporation, Boston, Mass.) was used as the ligand for nicotinic acetylcholine receptor binding assays. All other reagents were purchased from the Sigma Chemical Co. (St. Louis, Mo.).
Male Sprague-Dawley rats (250-400 gm) were sacrificed by decapitation, the brains removed and the cerebral cortex dissected on ice. Synaptic membranes were prepared by homogenizing the cortical tissue in 20 volumes of ice-cold modified Tris buffer (50 mM Tris pH 7.4, 120 mM NaCl, 5 mM KCl, 2 mM EDTA, 1 mM PMSF) with a polytron (20 sec at setting 5-6) followed by centrifugation (15 min at 5,000×g) at 4° C. The resultant pellet was rehomogenized and centrifuged twice. The final pellet was resuspended in ice-cold assay buffer (50 mM Tris pH 7.4, 120 mM NaCl, 5 mM KCl, 2 mM CaCl2, 1 mM MgCl2) at a concentration of membrane equivalent to 1 gm wet weight cortex per 10 ml buffer. After protein determination the final membrane preparation was diluted with buffer to 3 mg protein/mi. This membrane preparation was used in either the fresh state or frozen (-70° C.) then thawed.
The binding assay is performed manually using 96-well plates, or using a Biomek automated work station (Beckman Instrument Co.). ^3 H-Nicotine was diluted in assay buffer to give a final concentration of 1.9 nM. The Biomek automated work station was programmed to automatically transfer 750 μl of assay buffer with ^3 H-nicotine, 230 μl of membrane preparation and 20 μl of solution containing the compound of interest in assay buffer, DMSO, ethanol:DMSO (1:1) or appropriate vehicle to the 96-well plate. Atropine was added to the incubation buffer at a final concentration of 3 μM to block binding to muscarinic acetylcholine receptor sites. The plates were maintained on ice for 60 min and the tissue-bound radioactivity was separated from the free by rapid filtration in a Brandel Harvester onto GF/C filters presoaked in 0.5% polyethyleneimine for at least 2 hr. The filters were washed with 4×2 ml of ice-cold assay buffer and filters were transferred to vials to which 4 ml of scintillation cocktail was added. The radioactivity was measured in a LS-6500 Beckman Liquid Scintillation Counter in an autodpm mode. Data were analyzed bylog-logit transformation or non-linear regression analysis (e.g., employing GraphPad Prism, available from GraphPad Software, San Diego, Calif.) to give IC50 values. Non-specific binding was defined by 10 μM cytisine.

rats = experiment: Locomotor activity assay; format: in vivo, rat (male Sprague-Dawley); details: Rattus norvegicus, sc, 20 mg/kg, s.c.
[4] = test system: ^3 H-Dopamine release, rat striatal slices; experiment: Ligand-stimulated ^3 H-dopamine release from rat striatal slices; format: cell-based; details: in vitro slices, 300 μM
[5] = 1 h, 0-60 min, read-out: Ambulation (cross overs), percent of change from control
[6] = 1 h, 0-60 min, read-out: General Activity (beam breaks), percent of change from control
[7] = 2 h, 60-120 min, read-out: General Activity (beam breaks), percent of change from control
[8] = ^3 H-nicotine 1.9 nM, rat cerebral membranes, read-out: IC50, Nicotine
[9] = 2 h, 60-120 min, read-out: Ambulation (cross overs), percent of change from control

| SMILES | percent fractional release, ^3 H-Norepinephrine, Prefrontal Cortex [1] [%] | percent fractional release, ^3 H-Norepinephrine, Thalamus [2] [%] | IC50 ([3]; IC50, Nicotine) [nM] | change in vivo at 20 mg/kg (rats; [5]) [%] | change in vivo at 20 mg/kg (rats; [6]) [%] | change in vivo at 20 mg/kg (rats; [7]) [%] | percent fractional release, ^3 H-Dopamine, Striatum [4] [%] | IC50 [3, 8] [nM] | change in vivo at 20 mg/kg (rats; [9]) [%] |
| --- | --- | --- | --- | --- | --- | --- | --- | --- | --- |
| C#Cc1cncc(C2CCCN2C)c1.O=C(O)/C=C/C(=O)O (racemic) [R^5 = ethynyl (racemic), 5-Ethynyl-3-(1-methyl-2-pyrrolidinyl)pyridine fumarate] | 0.97 | 0.31 | 4.6 | 631 | 509 | 628 | 2.56 |  |  |
| CN1CCCC1c1cncc(-c2ccc(O)c(Cl)c2)c1.O=C(O)/C=C/C(=O)O (stereo not shown) [R^5 = 3-chloro-4-hydroxyphenyl, 5-(4-hydroxy-3-chlorophenyl)-3-(1-methyl-2-pyrrolidinyl)pyridine fumarate] | 2.94 | 3.23 |  | 63 | 68 | -17 | 8.34 | 28 | -36 |
| CN1CCCC1c1cncc(-c2cccc(Cl)c2)c1.O=C(O)/C=C/C(=O)O (stereo not shown) [R^5 = 3-chlorophenyl, 5-(3-Chlorophenyl)-3-(1-methyl-2-pyrrolidinyl) pyridine fumarate] | 1.7 | 1.48 |  | 48 | 70 | 220 | 2.0 | 120 | 268 |
| COc1ccc(-c2cncc(C3CCCN3C)c2)cc1F.O=C(O)/C=C/C(=O)O (stereo not shown) [R^5 = 3-fluoro-4-methoxyphenyl, 5-(3-Fluoro-4-methoxyphenyl)-3-(1-methyl-2-pyrrolidinyl)pyridine fumarate] | 2.0 | 1.75 |  | 58 | 78 | 202 | 3.1 | 27 | 268 |
